Measured values taken from patent US7094752B2 (Chiron Corporation, priority 1997, dated 2006).
Like-named read-outs stand apart in the source and are kept apart here. Marks after values point to notes of the source that are not given here. Square brackets hold non-standard residues; d marks the D form. Peptide text beside a SMILES is read from it. 1Nal = N[C@@H](Cc1cccc2ccccc12)C(=O)O; 2Nal = N[C@@H](Cc1ccc2ccccc2c1)C(=O)O; Nle = CCCC[C@H](N)C(=O)O; Abu = CC[C@H](N)C(=O)O

How the values were obtained:
[1] = target: T1, sUPAR domain 2–3 (D23) (Homo sapiens, UniProt Q03405); assay: Bacteriophage binding to sUPAR domain 2/3; settings: phage-displayed peptide
T1 construct: domains 2 and 3 (amino acids 93–313); made in house; host or cells: baculovirus infected Sf9 insect cells
Description: FIG. 5. Bacteriophage binding to sUPAR domain 2/3. Phage were added to wells containing sUPAR domain 2/3 immobilized by its epitope tag via protein G and monoclonal antibody to the epitope tag. Wells containing protein G and antibody but no domain 2/3 were included to determine nonspecific phage binding. Urea-eluted phage and the input stocks were titered by plaque formation assay. Results were single point determinations calculated as a percent of the input titer and were repeated in three separate experiments.
It was also shown by the inventors that bacteriophage bound to sUPAR domain 2–3fragment. Protein G, 100μl, 1 mg/ml in 50 mM Na2CO3, pH9.6, was added to MaxiSorp wells, incubated overnight at 4° C. and then washed with PBS/BSA. Fifty μl of monoclonal antibody to the epitope tag EYMPME (SEQ ID NO: 18) was added at 1 mg/ml in PBS/BSA and incubated for 2 hours at room temperature. The wells were washed, recombinant sUPAR domain 2–3 (1.7 μM in PBS/BSA) was added and incubated for 1.5 hours at room temperature. The wells were washed prior to the addition of bacteriophage (approximately 10^8 pfu), and then treated as described in the previous section for binding to suPAR.

[2] = target: T2, soluble uPAR (Homo sapiens, UniProt Q03405)
[3] = target: T2, soluble uPAR; assay type: binding; set-up: sUPAR, soluble truncated form of the urokinase receptor; made in house; host or cells: baculovirus-infected Sf9 insect cells; settings: for % Inhibition 2.5 uM: 2500.0; for % Inhibition 5 uM: 5000.0
Description: Streptavidin, 100 μl (0.1 mg/ml) in 50 mM Na2CO3, pH 9.6, was added to MaxiSorp wells (Nunc), incubated overnight at 4 C, and then washed with PBS/BSA. Biotinylated sUPAR (25 nM in PBS/BSA) was added to the wells and incubated for 2 hours at room temperature prior to washing. Competitive peptide inhibitors were added to the wells immediately prior to addition of the bacteriophage. The wells were incubated for one hour at room temperature, then washed and bound bacteriophage eluted with 6M urea in 0.1N HCl, pH 2.5. After 15 minutes, the urea eluate was brought to neutral pH by addition of 2M Tris base and the bacteriophage titers of input stocks and elutions measured by plaque formation assay. Results were expressed as the percent of input bacteriophage which bind to the wells. Alternatively, the amount of bacteriophage was determined in an ELISA where phage were preincubated with HRP-conjugated anti-M13 antibody for 30 minutes at room temperature before dispensing into wells prepared as above and incubated for one hour at room temperature. The final anti-M13 conjugate dilution was 1:4000. After washing, TMB substrate (100 μl/well) was added and color development was stopped with 0.8N H2SO4 (100 μl/well). The absorbance at 450 nm was then measured in a 96 well plate reader.
In a uPAR binding assay, the following analogs were tested in a competition with phage displaying either peptide 25 or peptide 9. The analogs comprise both natural and unnatural amino acids.
The analogs were tested in an assay utilizing soluble uPAR, similar to the method described in Example 2. The analogs were tested for their ability to compete with phage displaying either peptide 9 or peptide 25. Analogs 3–61 were tested in competition with peptide 25. Analogs 62–96 were tested in competition with peptide 9. Approximately 10^8 plaque forming units of the phage were used in the assay.
The analogs were tested at a concentration at 40 μM in the uPAR competition assay with phage displaying peptide 25. The results below show which analogs were active.
Analogs 31–61 were tested for their ability to compete with phage displaying peptide 25. The active analogs were tested further at two concentrations, 5 μM and 2.5 μM. These concentrations were calculated based on the synthesis reactions. However, the sequences * were further tested and determined to contain high amounts of amino acids and the quantity tested could have been higher than 5 μM or 2.5 μM.

[4] = target: T3, uPA1–48:uPAR complexes binding to vitronectin (Homo sapiens, UniProt Q03405); assay: Vitronectin binding assay (ELISA); settings: 20 nM biotinylated suPAR, 20 nM uPA1–48
T3 construct: sUPAR, soluble truncated form of the urokinase receptor; made in house; host or cells: suPAR: baculovirus-infected Sf9 cells; uPA1-48: recombinant yeast; vitronectin: purified from human plasma
Description: Vitronectin was purified from human plasma by the method of Yatohgo et al, Cello Struct.and Funct. 13: 281–292 (1988). Purified vitronectin was diluted to 20 μg/ml in PBS containing 1 mM CaCl2 and 0.5 mM MgCl2, dispensed at 50 μl/well into Immulon II wells (Dynatech, Chantilly, Va.), incubated overnight at 4° C. and washed with PBS/BSA. Biotinylated sUPAR was diluted to 20 nM in PBS/BSA, incubated with or without test ligand for 30 minutes at room temperature (22° C.), dispensed at 100 μl/well and incubated for 90 minutes. Wells were then washed and horseradish peroxidase (HRP)-conjugated streptavidin was added at 0.4 μg/ml in PBS/2% BSA for 1 hour followed by washing and addition of 100 μl/well TMB substrate. The color development was stopped with 100 μl of 0.8N H2SO4 and the absorbance at 450 nm measured in a 96 well plate reader (Dynatech, Chantilly, Va.). Antagonistic effects of test ligands were measured as described above except the ligands were incubated with 20 nM biotinylated suPAR in the presence of 20 nM uPA1–48.
In order to analyze the effects of the various peptide ligands on the uPAR:vitronectin interaction, we developed an in vitro ELISA based assay for this interaction, in which biotinylated suPAR and uPA1–48 bind to immobilized, urea purified vitronectin, and the bound sUPAR is detected with HRP conjugated streptavidin. Under the conditions of the assay binding of biotinylated uPAR to vitronectin is strictly dependent on uPA1–48, as shown in FIG. 1.

T2 sequence (Q03405 23-305 limits assumed): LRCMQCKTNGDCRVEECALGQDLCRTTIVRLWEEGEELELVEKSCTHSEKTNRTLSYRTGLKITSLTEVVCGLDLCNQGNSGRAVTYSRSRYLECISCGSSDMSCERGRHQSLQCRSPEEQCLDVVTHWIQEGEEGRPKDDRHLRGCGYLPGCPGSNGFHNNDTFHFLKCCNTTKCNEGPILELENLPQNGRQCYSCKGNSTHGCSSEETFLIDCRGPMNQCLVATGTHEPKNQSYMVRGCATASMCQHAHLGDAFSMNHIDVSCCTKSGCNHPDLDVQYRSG
T1 sequence (Q03405 115-335): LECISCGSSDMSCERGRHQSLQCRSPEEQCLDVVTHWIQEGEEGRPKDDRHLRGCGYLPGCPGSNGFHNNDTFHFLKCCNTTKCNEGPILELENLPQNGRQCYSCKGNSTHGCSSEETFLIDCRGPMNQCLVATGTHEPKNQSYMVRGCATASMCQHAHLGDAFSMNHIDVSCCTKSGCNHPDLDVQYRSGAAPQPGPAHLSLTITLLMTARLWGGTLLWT
T3 sequence (Q03405 23-305 limits assumed, one chain of several): as the sequence (Q03405 23-305 limits assumed) above

| Compound | % Inhibition 2.5 uM [3] | % Inhibition 5 uM [3] | other results |
| --- | --- | --- | --- |
| H-AEFFKLGPNGYVYLHSA-NH2 [peptide 9] |  |  | bacteriophage binding to immobilized D23 versus sUPAR [1]: bind equivalently to the D23 fragment and full-length receptor; % Inhibition 2.5 uM ([2]; 2500.0): 59%; % Inhibition 5 uM ([2]; 5000.0): 71% |
| CCCC[C@H](NC(=O)[C@H](Cc1ccc(O)cc1)NC(=O)CNC(=O)[C@H](CC(C)C)NC(=O)[C@H](CO)NC(=O)[C@H](CC(C)C)NC(=O)[C@H](Cc1c[nH]cn1)NC(=O)[C@H](Cc1c[nH]cn1)NC(=O)[C@H](Cc1ccc(O)cc1)NC(=O)[C@@H](NC(=O)[C@H](CO)NC(=O)[C@H](CCC(=O)O)NC(=O)[C@H](C)N)[C@@H](C)O)C(=O)N[C@@H](Cc1ccc(O)cc1)C(=O)N[C@H](C(=O)N[C@@H](CC(C)C)C(=O)N[C@@H](CC(N)=O)C(N)=O)[C@@H](C)O [Analog 44, AESTYHHLSLGYJYTLN] (H-AESTYHHLSLGY[Nle]YTLN-NH2) | 84* % | 91% |  |
| CC[C@H](NC(=O)[C@H](Cc1ccc(O)cc1)NC(=O)CNC(=O)[C@H](CC(C)C)NC(=O)[C@H](CO)NC(=O)[C@H](CC(C)C)NC(=O)[C@H](Cc1c[nH]cn1)NC(=O)[C@H](Cc1c[nH]cn1)NC(=O)[C@H](Cc1ccc(O)cc1)NC(=O)[C@@H](NC(=O)[C@H](CO)NC(=O)[C@H](CCC(=O)O)NC(=O)[C@H](C)N)[C@@H](C)O)C(=O)N[C@@H](Cc1ccc(O)cc1)C(=O)N[C@H](C(=O)N[C@@H](CC(C)C)C(=O)N[C@@H](CC(N)=O)C(N)=O)[C@@H](C)O [Analog 45] (H-AESTYHHLSLGY[Abu]YTLN-NH2) | 31% | 59% |  |
| CSCC[C@H](NC(=O)[C@H](Cc1ccc(O)cc1)NC(=O)CNC(=O)[C@H](CC(C)C)NC(=O)[C@H](CO)NC(=O)[C@H](CC(C)C)NC(=O)[C@H](Cc1c[nH]cn1)NC(=O)[C@H](Cc1c[nH]cn1)NC(=O)[C@H](Cc1ccc2ccccc2c1)NC(=O)[C@@H](NC(=O)[C@H](CO)NC(=O)[C@H](CCC(=O)O)NC(=O)[C@H](C)N)[C@@H](C)O)C(=O)N[C@@H](Cc1ccc(O)cc1)C(=O)N[C@H](C(=O)N[C@@H](CC(C)C)C(=O)N[C@@H](CC(N)=O)C(N)=O)[C@@H](C)O [Analog 36] (H-AEST[2Nal]HHLSLGYMYTLN-NH2) | 61% | 78% |  |
| CSCC[C@H](NC(=O)[C@H](Cc1ccc(O)cc1)NC(=O)CNC(=O)[C@H](CC(C)C)NC(=O)[C@H](CO)NC(=O)[C@H](CC(C)C)NC(=O)[C@H](Cc1c[nH]cn1)NC(=O)[C@H](Cc1c[nH]cn1)NC(=O)[C@H](Cc1ccc(O)cc1)NC(=O)[C@@H](NC(=O)[C@H](CO)NC(=O)[C@H](CCC(=O)O)NC(=O)[C@H](C)N)[C@@H](C)O)C(=O)N[C@@H](Cc1ccc(O)cc1)C(=O)N[C@H](C(=O)N[C@@H](CC(C)C)C(=O)N[C@H](CC(N)=O)C(N)=O)[C@@H](C)O [Analog 61] (H-AESTYHHLSLGYMYTL[dN]-NH2) | 32% | 55% |  |
| CSCC[C@H](NC(=O)[C@H](Cc1ccc(O)cc1)NC(=O)CNC(=O)[C@@H](CC(C)C)NC(=O)[C@H](CO)NC(=O)[C@H](CC(C)C)NC(=O)[C@H](Cc1c[nH]cn1)NC(=O)[C@H](Cc1c[nH]cn1)NC(=O)[C@H](Cc1ccc(O)cc1)NC(=O)[C@@H](NC(=O)[C@H](CO)NC(=O)[C@H](CCC(=O)O)NC(=O)[C@H](C)N)[C@@H](C)O)C(=O)N[C@@H](Cc1ccc(O)cc1)C(=O)N[C@H](C(=O)N[C@@H](CC(C)C)C(=O)N[C@@H](CC(N)=O)C(N)=O)[C@@H](C)O [Analog 55] (H-AESTYHHLS[dL]GYMYTLN-NH2) | 56% | 80% |  |
| somatomedin B domain of vitronectin: recombinant somatomedin B domain of vitronectin (DQESCKGRCTEGFNVDKKCQCDELCSYYQSCCTDYTAECKPQVT) |  |  | effect on binding of uPA1–48:uPAR complexes to vitronectin [4]: blocked |
| H-AESTFHHLSLGYMYTLN-NH2 [Analog 34] | 38% | 47% |  |
| CSCC[C@H](NC(=O)[C@H](Cc1ccc(O)cc1)NC(=O)CNC(=O)[C@H](CC(C)C)NC(=O)[C@H](CO)NC(=O)[C@H](CC(C)C)NC(=O)[C@H](Cc1c[nH]cn1)NC(=O)[C@H](Cc1c[nH]cn1)NC(=O)[C@H](Cc1ccc(O)cc1)NC(=O)[C@@H](NC(=O)[C@H](CO)NC(=O)[C@H](CCC(=O)O)NC(=O)[C@@H](C)N)[C@@H](C)O)C(=O)N[C@@H](Cc1ccc(O)cc1)C(=O)N[C@H](C(=O)N[C@@H](CC(C)C)C(=O)N[C@@H](CC(N)=O)C(N)=O)[C@@H](C)O [Analog 46] (H-[dA]ESTYHHLSLGYMYTLN-NH2) | 41% | 57% |  |
| H-AESTYHHLSLGYVYTLN-NH2 [Analog 43] | 63% | 82% |  |
| CSCC[C@H](NC(=O)[C@H](Cc1ccc(O)cc1)NC(=O)CNC(=O)[C@H](CC(C)C)NC(=O)[C@H](CO)NC(=O)[C@H](CC(C)C)NC(=O)[C@H](Cc1c[nH]cn1)NC(=O)[C@H](Cc1c[nH]cn1)NC(=O)[C@H](Cc1cccc2ccccc12)NC(=O)[C@@H](NC(=O)[C@H](CO)NC(=O)[C@H](CCC(=O)O)NC(=O)[C@H](C)N)[C@@H](C)O)C(=O)N[C@@H](Cc1ccc(O)cc1)C(=O)N[C@H](C(=O)N[C@@H](CC(C)C)C(=O)N[C@@H](CC(N)=O)C(N)=O)[C@@H](C)O [Analog 35, AESTXHHLSLGYMYTLN] (H-AEST[1Nal]HHLSLGYMYTLN-NH2) | 70% | 94% |  |
| CSCC[C@H](NC(=O)[C@H](Cc1ccc(O)cc1)NC(=O)CNC(=O)[C@H](CC(C)C)NC(=O)[C@@H](CO)NC(=O)[C@H](CC(C)C)NC(=O)[C@H](Cc1c[nH]cn1)NC(=O)[C@H](Cc1c[nH]cn1)NC(=O)[C@H](Cc1ccc(O)cc1)NC(=O)[C@@H](NC(=O)[C@H](CO)NC(=O)[C@H](CCC(=O)O)NC(=O)[C@H](C)N)[C@@H](C)O)C(=O)N[C@@H](Cc1ccc(O)cc1)C(=O)N[C@H](C(=O)N[C@@H](CC(C)C)C(=O)N[C@@H](CC(N)=O)C(N)=O)[C@@H](C)O [Analog 54] (H-AESTYHHL[dS]LGYMYTLN-NH2) | 73% | 86% |  |
